# Laboratory results taken from patent publication US11759471B2, “Modified release pharmaceutical composition and method for the treatment of mental disorders” (MEDICAL AND PHARMACEUTICAL INDUSTRY TECHNOLOGY AND …, priority 2019, dated 2023).
# How the values were obtained:
# [1] = In vitro dissolution test, USP Apparatus 2 (paddle); type: physicochemical; conditions: FIG. 1, 3 mg paliperidone in raw form
# Description: In vitro dissolution test was conducted in a USP Apparatus 2 (paddle) at 37±0.5° C., 50 rpm, in a solution having 750 mL of 0.1 N HCl and 1000 mL of pH 6.8 buffer
# FIG. 1 discloses the dissolution release amount for 25 mg quetiapine in tablet of reference listed drug, 3 mg paliperidone in raw form.
# [2] = Dissolution of methacrylic acid coated samples in pH1.2 solvent; type: physicochemical; conditions: methacrylic acid coated samples with different encapsulation efficiency
# Description: Further use carried out with different encapsulation efficiency of experiments, and the samples with different encapsulation efficiency were test pH1.2 solvent dissolve. At the same time, it can be known that the results of the dissolution rate of paliperidone within 2 hours is not more than 10%. The present invention can be achieved effect of delayed release of paliperidone.
# [3] = as measured by blood concentration; cited from earlier work
smiles,measurement,setting,value
Cc1nc2n(c(=O)c1CCN1CCC(c3noc4cc(F)ccc34)CC1)CCCC2O (stereo not shown) [paliperidone],dissolution amount of paliperidone after pH change,"[1]; after 120 minutes, pH increased from 1.2 to 6.8, slightly decreased",above 100%
same,dissolution amount of paliperidone,"[1]; less than 10 minutes, then maintained, pH 1.2",above 100%
same,dissolution rate of paliperidone within 2 hours,[2],not more than 10%
same,half-life in patients' blood,[3],20 to 28 h
